Test results from patent US20060222628A1, “Gallium complexes of 3-hydroxy-4-pyrones to treat infection by intracellular prokaryotes and DNA viruses” (priority 1999, published 2006).

Columns and labels:
[1] = tested on: HIV-1; assay: Clinical evaluation in co-infection by HIV and hepatitis B: HIV; format: in vivo, human; settings: hepatitis B co-infected patients; MacSynergy II
Protocol: (§1) Gallium maltolate is evaluated clinically for efficacy in treating hepatitis B co-infection of a HIV-1 patients. In addition to the methods used in Example 5 for evaluating the HIV disease, the methods employed in the clinical studies discussed in the following references are used in the evaluation: Yao et al. (1997), “Treatment of Chronic Hepatitis B: New Antiviral Therapies,” Curr. Gastroenterol. Rep. 1(1):20-26; Hoofnagle et al. (1997), “New therapies for chronic hepatitis B,” supra.
(§2) Patients are treated once per day with gelatin capsules containing gallium maltolate. The population of patients with hepatitis B and HIV infection are first divided into two subpopulations groups based on CD4+ counts (above 350/mm^3 and below 350/mm^3). […]
(§3) In each subpopulation, the first group's four subgroups from each subpopulation (above 350/mm^3 and below 350/mm^3) additionally receive the gallium maltolate dose together with 10 million IU interferon by injection once per day. […] Patients are monitored for HIV disease precisely as described in Example 5. Patients are also medically monitored for liver disease, including liver function testing and examination for medical symptoms of hepatitis B infection throughout the study, with careful attention to the possibility that the drugs themselves may cause some liver disease and elevate the liver function tests. […]

[2] = target: T1, transferrin (Tf) (Homo sapiens, UniProt P02787); settings: oral, versus intravenous gallium nitrate; cited from earlier work
T1 construct: host or cells: circulating (blood plasma) transferrin of the dosed subject

[3] = tested on: HIV infection; assay: Clinical evaluation for treating HIV infection; format: in vivo, human; settings: 250, 500 or 750 mg/day oral about six months, with AZT, ddI and indinavir
Protocol: Patients with HIV infection are treated once per day with gelatin capsules containing 250 mg gallium maltolate. Patients are divided randomly and blindly into approximately equal groups that receive either 0 (placebo), 250, 500, or 750 mg/day gallium maltolate for about six months, together with 300 mg AZT twice per day, 200 mg ddI twice per day, and 800 mg indinavir every eight hours. Patients are medically monitored for symptoms of HIV infection throughout the study. In addition, blood serum samples are obtained from the patients at days 0, 30, 90, and 180 and are assayed for CD4 T-cell count by routine methods and for HIV-1 RNA (viral load assay) using the Roche […] ultra-assay (Sun et al. (1998), “Ultrasensitive reverse transcription-PCR assay for quantitation of human immunodeficiency virus type 1 RNA in plasma,” J. Clin. Microbiol. 36(10):2964-2969).

[4] = tested on: hepatitis B; assay: Clinical evaluation in co-infection by HIV and hepatitis B: hepatitis B; format: in vivo, human
Protocol: as §1, §2, §3

[5] = tested on: Varicella-Zoster (VZV); assay: Clinical evaluation for Varicella-Zoster (VZV) infection and recurrences; format: in vivo, human
Protocol: Gallium maltolate is evaluated clinically for efficacy in treating Varicella-Zoster (VZV) infection in HIV negative individuals who show no signs of immune dysfunction of any type. Patients with VZV infection are treated once per day with gelatin capsules containing gallium maltolate. The population of patients is divided into subpopulation with recurrent VZV (shingles) and acute VZV infections (chickenpox) respectively. These different subpopulations are divided randomly and blindly into two approximately equal groups with four approximately equal subgroups that receive either 0 (placebo), 250, 500, or 750 mg/day gallium maltolate for about six months. The first group of each subpopulation receive the gallium maltolate dose together with 800 mg acyclovir five times per day. The second group of each subpopulation receive the gallium maltolate dose together with 500 mg ganciclovir twice per day. Patients are medically monitored for resolution reoccurrences of latent VZV infection, or medical symptoms of acute VZV infection throughout the study, with the monitoring including in situ hybridization of skin lesions for VZV DNA. In addition for the acute VZV infected group, blood serum samples are obtained from the patients at days 1-5 and are assayed for VZV particles by routine methods and for VZV DNA (viral load assay) using PCR.

[6] = Stability of the 3:1 complex in aqueous solutions at various pH by ultraviolet spectroscopy; format: physicochemical; settings: 1.0×10^−2 M in water, 25° C.
Protocol: The pH was adjusted by adding either 1N HCl or 1N Na2CO3. The stability of the complex was determined using ultraviolet spectroscopy over the region 200-450 nm at 25° C. Several absorption peaks are observed in this range, including those at about 212-217 nm, 248 nm, 273 nm, 318 nm, and 385 nm. An isobesic point occurs over much of the pH range at about 290 nm. In the very dilute solutions (2.5×10^−6 M), the neutral 3:1 complex appears to be stable from about pH 4.5 to 9.5. For the less dilute solutions (1.0×10^−2 M), the determination was more difficult due to the very high absorbance.

T1 sequence (P02787 20-698, species assumed): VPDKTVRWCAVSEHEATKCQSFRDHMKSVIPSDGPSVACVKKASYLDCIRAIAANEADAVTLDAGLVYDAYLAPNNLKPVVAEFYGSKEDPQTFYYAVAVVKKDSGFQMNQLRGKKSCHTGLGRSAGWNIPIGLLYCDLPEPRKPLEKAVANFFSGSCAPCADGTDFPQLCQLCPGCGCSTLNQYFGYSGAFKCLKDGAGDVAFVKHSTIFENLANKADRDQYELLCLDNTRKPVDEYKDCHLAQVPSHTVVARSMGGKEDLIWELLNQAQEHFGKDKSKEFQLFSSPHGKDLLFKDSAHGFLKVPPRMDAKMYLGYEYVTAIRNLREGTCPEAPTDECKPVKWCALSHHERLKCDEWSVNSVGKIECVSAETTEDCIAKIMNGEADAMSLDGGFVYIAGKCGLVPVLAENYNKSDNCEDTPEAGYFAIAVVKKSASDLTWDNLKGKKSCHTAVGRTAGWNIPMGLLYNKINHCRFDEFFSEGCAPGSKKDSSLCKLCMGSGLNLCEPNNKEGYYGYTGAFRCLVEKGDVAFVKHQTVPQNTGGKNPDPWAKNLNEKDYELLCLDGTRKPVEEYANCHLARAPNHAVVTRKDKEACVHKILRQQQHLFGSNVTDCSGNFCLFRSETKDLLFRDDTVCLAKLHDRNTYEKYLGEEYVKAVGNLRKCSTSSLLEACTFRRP

Cc1occc(=O)c1[O-].Cc1occc(=O)c1[O-].Cc1occc(=O)c1[O-].[Ga+3] [gallium maltolate, tris(3-hydroxy-2-methyl-4H-pyran-4-onato)gallium]
Synergy with the HAART regime on HIV infection [1]: synergistic with the HAART regime in their effects upon the HIV infection
Tf binding of absorbed gallium and tissue distribution [2]: higher Tf binding of absorbed gallium and therefore better tissue distribution than intravenous gallium nitrate
Efficacy in treating HIV infection [3]: effective for treating HIV infection
Efficacy in treating hepatitis B infection in combination ([4]; HIV co-infected patients on HAART, with interferon-alpha or lamuvidine): effective in combination with interferon and interferon plus nucleoside analogs
Synergy in treating hepatitis B infection ([4]; with interferon and interferon plus nucleoside analogs): synergistic with both
Efficacy in treating VZV infection ([5]; HIV negative patients, 250-750 mg/day oral with acyclovir or ganciclovir): effective for treating VZV infection, including recurrent sores as well as more serious systemic disease
Efficacy of combination with acyclovir or ganciclovir versus single agents ([5]; VZV): more effective than either agent alone
Synergy with nucleoside analogs ([5]; VZV, MacSynergy II): synergy of gallium with both nucleoside analogs is also demonstrated
Stability region (pH) [6]: very similar to that of the highly dilute solution, possibly slightly wider
